Where “and” joins values, the source holds several entries; their conditions need not be identical. Equal values may be shown once. Read-outs that look alike come from different tables or passages of the source.
Columns and labels:
[1] = target: T1, rat isoform of TRPM8 channels (Rattus norvegicus, UniProt Q8R455); assay: Ca2+ fluorimetric assay, menthol-activated channel; assay type: cell-based
T1 construct: expressed in transfected cells
Method: TRPM8 blocker activity of all synthesized compounds was tested by Ca^2+ fluorimetric assays using HEK-293 cells stably expressing the rat isoform of TRPM8 channels, using menthol and AMTB as prototypical agonist and antagonist, respectively.
For measurement of the potency of the compounds, fluorimetric experiments were performed using HEK-293 cells (CRL-1573TM, American Type Culture Collection, LGC Promochem, Molsheim, France) that stably express rat TRPM8. The cells were seeded in 96-well plates (Corning Incorporated, Corning, NY) at a cell density of 40 000 cells 2 days before treatment. On the day of treatment, the medium was replaced with 100 μL of the dye loading solution Fluo-4 NW supplemented with probenecid 2.5 mM.
The tested molecules dissolved in DMSO were added at the desired concentrations, and the plates were incubated in darkness at 37 °C in a humidified atmosphere of 5% CO2 for 60 min. The fluorescence was measured using instrument settings appropriate for excitation at 485 nm and emission at 535 nm (POLARstar Omega BMG LABtech). A baseline recording of four cycles was recorded prior to stimulation with the agonist (100 μM menthol for TRPM8). The TRPM8 antagonist, 10 μM AMTB, was added to the medium containing the corresponding agonist to induce channel blockade. The changes in fluorescence intensity were recorded during 15 cycles more. The higher concentration of DMSO used in the experiment was added to the control wells. The cells’ fluorescence was measured before and after the addition of various concentrations of test compounds. The fluorescence values obtained are normalized to that prompted by the corresponding agonist (for channel activating compounds) or upon agonist and antagonist coexposure (for channel blocker compounds).

[2] = target: T2, hTRPA1 (Homo sapiens, UniProt O75762); assay: Selectivity fluorimetric assay, HEK-293 cells; assay type: cell-based; details: AITC as reference agonist
T2 construct: expressed in transfected cells; host or cells: HEK-293, stably transfected
T2 sequence (O75762 whole entry): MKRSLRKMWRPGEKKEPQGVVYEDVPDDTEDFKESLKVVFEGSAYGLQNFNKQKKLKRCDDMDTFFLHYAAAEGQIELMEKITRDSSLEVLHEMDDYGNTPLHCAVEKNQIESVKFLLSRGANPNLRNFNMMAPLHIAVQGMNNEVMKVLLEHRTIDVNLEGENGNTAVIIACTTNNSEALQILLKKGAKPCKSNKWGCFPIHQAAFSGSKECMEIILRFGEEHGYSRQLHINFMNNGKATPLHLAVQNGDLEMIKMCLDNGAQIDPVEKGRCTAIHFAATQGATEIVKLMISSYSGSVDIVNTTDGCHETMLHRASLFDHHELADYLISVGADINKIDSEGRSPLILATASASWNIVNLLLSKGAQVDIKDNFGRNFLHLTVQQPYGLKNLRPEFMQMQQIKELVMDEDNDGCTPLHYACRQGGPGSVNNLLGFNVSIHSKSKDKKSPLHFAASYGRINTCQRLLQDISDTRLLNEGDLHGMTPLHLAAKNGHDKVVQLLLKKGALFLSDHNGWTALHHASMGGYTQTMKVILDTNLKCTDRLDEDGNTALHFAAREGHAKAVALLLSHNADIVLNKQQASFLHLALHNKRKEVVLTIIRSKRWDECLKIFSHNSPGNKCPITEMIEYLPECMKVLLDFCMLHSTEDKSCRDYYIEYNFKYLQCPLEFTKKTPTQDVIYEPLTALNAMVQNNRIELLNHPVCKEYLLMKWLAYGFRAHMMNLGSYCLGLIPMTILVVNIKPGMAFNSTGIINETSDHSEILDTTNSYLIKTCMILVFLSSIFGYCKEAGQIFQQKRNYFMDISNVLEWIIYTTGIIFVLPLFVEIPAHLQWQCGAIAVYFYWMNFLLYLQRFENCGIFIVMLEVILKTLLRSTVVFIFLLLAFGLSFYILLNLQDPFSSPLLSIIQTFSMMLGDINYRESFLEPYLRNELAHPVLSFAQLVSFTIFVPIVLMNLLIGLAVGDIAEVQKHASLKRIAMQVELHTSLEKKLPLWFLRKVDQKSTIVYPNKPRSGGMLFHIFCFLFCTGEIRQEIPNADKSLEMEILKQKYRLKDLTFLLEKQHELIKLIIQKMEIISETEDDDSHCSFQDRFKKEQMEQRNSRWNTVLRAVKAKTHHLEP

[3] = target: T3, hTRPV1 (Homo sapiens, UniProt Q8NER1); assay: Selectivity fluorimetric assay, CHO-K1 cells; assay type: cell-based; details: capsaicine as reference agonist
T3 construct: expressed in transfected cells; host or cells: CHO-K1, stably transfected
T3 sequence (Q8NER1 whole entry): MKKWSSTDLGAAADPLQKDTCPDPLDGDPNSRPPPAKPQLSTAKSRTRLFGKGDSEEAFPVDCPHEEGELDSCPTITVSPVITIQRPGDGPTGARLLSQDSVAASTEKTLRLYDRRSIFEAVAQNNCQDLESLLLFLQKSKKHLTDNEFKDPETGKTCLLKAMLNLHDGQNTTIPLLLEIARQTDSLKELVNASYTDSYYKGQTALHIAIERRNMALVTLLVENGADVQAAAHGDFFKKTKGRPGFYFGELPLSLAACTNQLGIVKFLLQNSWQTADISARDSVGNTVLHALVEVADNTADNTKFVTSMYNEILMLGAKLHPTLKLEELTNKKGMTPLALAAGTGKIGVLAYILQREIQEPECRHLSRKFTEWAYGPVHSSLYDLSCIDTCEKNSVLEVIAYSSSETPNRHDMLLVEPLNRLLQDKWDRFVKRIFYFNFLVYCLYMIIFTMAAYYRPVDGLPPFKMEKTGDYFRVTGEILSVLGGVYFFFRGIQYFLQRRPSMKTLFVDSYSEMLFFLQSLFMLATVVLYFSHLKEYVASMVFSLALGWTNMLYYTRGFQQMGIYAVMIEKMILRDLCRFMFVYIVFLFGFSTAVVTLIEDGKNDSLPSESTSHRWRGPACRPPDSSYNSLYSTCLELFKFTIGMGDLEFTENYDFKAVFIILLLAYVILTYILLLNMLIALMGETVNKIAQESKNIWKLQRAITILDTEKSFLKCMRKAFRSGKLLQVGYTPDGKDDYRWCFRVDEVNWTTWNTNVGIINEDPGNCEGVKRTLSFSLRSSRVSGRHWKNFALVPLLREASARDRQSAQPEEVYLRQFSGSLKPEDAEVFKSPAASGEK

[4] = target: T4, hNav1.7 (Homo sapiens, UniProt Q15858); assay: Selectivity fluorimetric assay, HEK-293 cells; assay type: cell-based; details: for IC50: read-out: IC50, antagonistic activity over Nav1.7; for activity as agonist or antagonist on Nav1.7: veratridine as reference agonist
T4 construct: expressed in transfected cells; host or cells: HEK-293, stably transfected
T4 sequence (Q15858 whole entry): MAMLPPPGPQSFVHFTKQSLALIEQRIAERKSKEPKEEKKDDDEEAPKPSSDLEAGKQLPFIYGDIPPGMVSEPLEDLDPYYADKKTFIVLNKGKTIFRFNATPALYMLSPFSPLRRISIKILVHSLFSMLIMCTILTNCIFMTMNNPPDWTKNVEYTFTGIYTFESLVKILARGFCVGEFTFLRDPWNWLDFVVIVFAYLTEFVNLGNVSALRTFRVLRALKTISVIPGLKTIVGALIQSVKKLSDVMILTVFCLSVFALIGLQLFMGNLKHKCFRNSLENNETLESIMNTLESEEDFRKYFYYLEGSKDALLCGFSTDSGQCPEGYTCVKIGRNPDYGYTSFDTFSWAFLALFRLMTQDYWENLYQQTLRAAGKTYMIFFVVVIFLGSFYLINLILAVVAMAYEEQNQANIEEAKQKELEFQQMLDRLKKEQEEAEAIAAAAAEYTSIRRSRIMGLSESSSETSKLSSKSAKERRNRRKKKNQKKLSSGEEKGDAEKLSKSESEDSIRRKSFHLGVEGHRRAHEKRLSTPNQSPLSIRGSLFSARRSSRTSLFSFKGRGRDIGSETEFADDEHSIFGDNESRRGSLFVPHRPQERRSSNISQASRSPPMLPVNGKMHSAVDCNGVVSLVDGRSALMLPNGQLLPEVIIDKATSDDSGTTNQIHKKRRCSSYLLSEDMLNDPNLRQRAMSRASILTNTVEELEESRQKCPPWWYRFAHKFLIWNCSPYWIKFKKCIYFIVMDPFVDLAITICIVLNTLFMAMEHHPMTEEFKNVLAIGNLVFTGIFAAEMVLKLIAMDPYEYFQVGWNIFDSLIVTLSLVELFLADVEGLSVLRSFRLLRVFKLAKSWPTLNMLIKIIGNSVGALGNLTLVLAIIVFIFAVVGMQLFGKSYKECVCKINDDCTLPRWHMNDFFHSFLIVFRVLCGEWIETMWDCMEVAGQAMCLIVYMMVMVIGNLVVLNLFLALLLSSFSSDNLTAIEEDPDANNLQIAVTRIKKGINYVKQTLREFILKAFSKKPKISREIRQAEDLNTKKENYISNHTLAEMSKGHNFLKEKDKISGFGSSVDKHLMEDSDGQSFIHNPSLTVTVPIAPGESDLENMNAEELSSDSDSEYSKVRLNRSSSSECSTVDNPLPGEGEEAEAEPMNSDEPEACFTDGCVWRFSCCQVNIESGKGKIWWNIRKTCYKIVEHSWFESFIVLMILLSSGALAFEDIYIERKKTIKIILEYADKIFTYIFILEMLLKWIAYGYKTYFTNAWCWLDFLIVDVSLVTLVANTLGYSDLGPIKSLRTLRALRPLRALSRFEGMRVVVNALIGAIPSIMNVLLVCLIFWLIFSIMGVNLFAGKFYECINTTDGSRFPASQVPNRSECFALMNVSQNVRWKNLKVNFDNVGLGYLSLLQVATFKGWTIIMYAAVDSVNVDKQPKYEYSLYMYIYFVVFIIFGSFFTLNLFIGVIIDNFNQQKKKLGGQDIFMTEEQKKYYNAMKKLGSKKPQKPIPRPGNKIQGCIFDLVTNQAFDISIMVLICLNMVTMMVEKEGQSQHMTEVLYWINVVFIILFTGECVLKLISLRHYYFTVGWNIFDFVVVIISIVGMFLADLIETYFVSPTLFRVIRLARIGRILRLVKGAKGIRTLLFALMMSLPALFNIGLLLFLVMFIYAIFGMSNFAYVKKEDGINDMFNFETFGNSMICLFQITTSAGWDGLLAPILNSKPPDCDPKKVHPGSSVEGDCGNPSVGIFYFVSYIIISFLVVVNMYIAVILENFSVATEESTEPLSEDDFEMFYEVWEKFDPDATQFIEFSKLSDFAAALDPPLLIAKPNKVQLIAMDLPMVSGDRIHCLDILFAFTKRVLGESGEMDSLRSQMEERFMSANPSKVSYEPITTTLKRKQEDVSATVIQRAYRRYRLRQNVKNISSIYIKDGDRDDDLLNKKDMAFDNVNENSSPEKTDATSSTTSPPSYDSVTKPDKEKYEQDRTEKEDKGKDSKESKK

[5] = In vitro metabolic stability using liver microsomes; assay type: in vitro ADME, human; details: 60 min with liver microsomes, no NADPH or UDP-GlcUA/NADPH
Method: Compound 4 was used as reference, considering that its main pitfall was represented by metabolic instability that the newly synthesized compounds were aimed in overcoming. […] Each sample (2.5 mM) was incubated with 100 mM phosphate buffer (pH 7.4) and 20 mg/mL of liver microsomes (Thermo Fisher Scientific, Bremen, Germany). After preincubation in water bath for 5 min, the mixture was incubated with 20 mM NADPH (protocol I) at 37 °C for 60 min in a Thermomixer comfort (Eppendorf, Hamburg, Germany). For the measurement of UGT activity the microsomes were preincubated with alamethicin, which forms pores in microsomal membranes, promoting access of substrate and cofactor to UGT enzymes. Subsequently, each sample was incubated with 100 mM phosphate buffer, 500 mM magnesium chloride, 10 mM NADPH, and 20 mM UDP-GlcUA at 37 °C for 60 min. Finally, the reactions from both protocols (protocols I and II) were stopped by the addition of 200 μL of ice-cold methanol, and then samples were centrifuged at 10 000 rpm at 25 °C for 5 min (Eppendorf microcentrifuge 5424, Hamburg, Germany). The supernatants were collected and injected in UHPLC-PDA. The control at 0 min was obtained by addition of the organic solvent immediately after incubation with microsomes. […] The extent of metabolism is expressed as a percentage of the parent compound turnover using the following equation, as previously described:[43] […]

[6] = Time-course cis to trans epimerization stability (HPLC); assay type: physicochemical; details: for conversion of cis isomer to trans isomer: during 60 min, regardless of the solvent used (PBS, methanol)
Method: In this case, a different chemical approach is required because of the minor reactivity of anilines. Intermediates THBC 32a and 32b were coupled with 3CF3 or 2F or 4-F-phenyl isocyanate in basic medium of TEA. […] Absolute configuration was determined as described above. The formation of the cis intermediates, which was not observed with the N-benzyl or N-alkyl analogs, can be explained by the increased stability of the kinetic control species due to the higher rigidity of this structure. […] In addition, the corresponding C-11a epimers 36a′–38a′ could be obtained directly by reaction of 32b with the corresponding isocyanates and TEA at 60 °C for 30 min in 39–45% yields.
Figure S1: Time-course trans (36a’-38a’) / cis (36b-38b) HPLC peak area ratio in physiological
buffer (PBS, panel A) and methanol (Panel B).

[7] = HEK-293 cells stably expressing rat TRPM8, menthol as agonist, mean ± SD of at least three measurements, read-out: IC50
[8] = Table 2, Ca2+ fluorimetric assay, read-out: IC50 Ca2+
[9] = supplementary xlsx, read-out: rTRPM8 IC50 (calcium microfluorimetric assays)

T1 sequence (Q8R455 whole entry, canonical isoform): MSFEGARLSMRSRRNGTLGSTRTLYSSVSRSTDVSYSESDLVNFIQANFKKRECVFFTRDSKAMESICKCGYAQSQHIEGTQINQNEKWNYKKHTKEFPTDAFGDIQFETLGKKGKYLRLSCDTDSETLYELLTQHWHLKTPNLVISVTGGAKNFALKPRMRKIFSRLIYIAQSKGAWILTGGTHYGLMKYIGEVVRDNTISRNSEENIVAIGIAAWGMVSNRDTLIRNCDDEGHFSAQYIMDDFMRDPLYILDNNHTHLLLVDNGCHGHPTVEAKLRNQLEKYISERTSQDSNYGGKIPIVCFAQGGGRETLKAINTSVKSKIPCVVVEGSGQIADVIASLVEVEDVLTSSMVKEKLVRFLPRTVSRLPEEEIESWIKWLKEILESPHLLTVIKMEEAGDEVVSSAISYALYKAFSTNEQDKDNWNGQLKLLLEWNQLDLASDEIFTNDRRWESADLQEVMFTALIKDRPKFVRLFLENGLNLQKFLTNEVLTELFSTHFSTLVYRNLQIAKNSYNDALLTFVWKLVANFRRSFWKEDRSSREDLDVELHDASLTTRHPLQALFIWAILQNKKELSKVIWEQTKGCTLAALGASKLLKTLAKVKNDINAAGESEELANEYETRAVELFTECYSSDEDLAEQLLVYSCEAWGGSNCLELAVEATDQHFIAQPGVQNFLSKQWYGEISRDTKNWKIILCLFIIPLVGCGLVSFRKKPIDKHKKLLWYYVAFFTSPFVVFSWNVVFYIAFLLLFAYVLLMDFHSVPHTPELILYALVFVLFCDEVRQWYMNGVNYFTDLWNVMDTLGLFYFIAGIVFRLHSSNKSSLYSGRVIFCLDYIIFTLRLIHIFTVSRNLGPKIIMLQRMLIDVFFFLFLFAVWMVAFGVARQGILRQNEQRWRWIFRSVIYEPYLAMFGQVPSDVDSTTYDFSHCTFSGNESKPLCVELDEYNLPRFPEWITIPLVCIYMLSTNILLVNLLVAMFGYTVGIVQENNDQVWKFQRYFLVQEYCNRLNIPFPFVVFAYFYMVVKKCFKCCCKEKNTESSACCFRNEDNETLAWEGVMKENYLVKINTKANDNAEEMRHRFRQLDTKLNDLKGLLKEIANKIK

IC50 [4] [nM]	SMILES	IC50 [1, 7]	activity as agonist or antagonist on TRPA1 [2]	activity as agonist or antagonist on TRPV1 [3]	turnover in absence of metabolic cofactors [5] [%]	IC50 [1, 8] [nM]	activity as agonist or antagonist on Nav1.7 [4]	IC50 [1, 9] [nM]	percentage of epimerization ([6]; during patch-clamp electrophysiology assays)	conversion of cis isomer to trans isomer [6]
> 10000	COC(=O)[C@@H]1Cc2c([nH]c3ccccc23)[C@@H](c2ccccc2)N1Cc1ccccc1 [6a, (1R,3S)-Methyl 2-Benzyl-1-phenyl-2,3,4,9-tetrahydro-1H-pyrido[3,4-b]indole-3-carboxylate]	1300 ± 700 nM	no activity as agonists or antagonists	no activity as agonists or antagonists	–	–	–	–	–	–
–	COC(=O)CC[C@H]1N[C@H](C(=O)NCc2ccc(F)cc2)Cc2c1[nH]c1ccccc21 [11a, Methyl 3-((1R,3S)-3-((4-Fluorobenzyl)carbamoyl)-2,3,4,9-tetrahydro-1H-pyrido[3,4-b]indol-1-yl)propanoate]	800 nM and 1100 nM	no activity as agonists or antagonists	no activity as agonists or antagonists	66.5 ± 3.8	1100 ± 500	no activity as agonists or antagonists	–	–	–
–	O=C1[C@@H]2Cc3c([nH]c4ccccc34)[C@H](c3ccc(F)cc3)N2C(=O)N1c1cccc(C(F)(F)F)c1 [36b, (5S,11aS)-5-(4-Fluorophenyl)-2-(3-(trifluoromethyl)phenyl)-5,6,11,11a-tetrahydro-1H-imidazo[1′,5′:1,6]pyrido[3,4-b]indole-1,3(2H)-dione]	200 ± 200 nM	no activity as agonists or antagonists	no activity as agonists or antagonists	–	200 ± 200	no activity as agonists or antagonists	300 ± 400	negligible	–
–	O=C1[C@@H]2Cc3c([nH]c4ccccc34)[C@H](c3ccc(F)cc3)N2C(=O)N1c1ccccc1F [37b, (5S,11aS)-2-(2-Fluorophenyl)-5-(4-fluorophenyl)-5,6,11,11a-tetrahydro-1H-imidazo[1′,5′:1,6]pyrido[3,4-b]indole-1,3(2H)-dione]	–	–	–	–	–	–	–	–	almost fully converted to the trans isomers
–	O=C1[C@@H]2Cc3c([nH]c4ccccc34)[C@H](c3ccc(F)cc3)N2C(=O)N1c1ccc(F)cc1 [38b, (5S,11aS)-2,5-Bis(4-fluorophenyl)-5,6,11,11a-tetrahydro-1H-imidazo[1′,5′:1,6]pyrido[3,4-b]indole-1,3(2H)-dione]	–	–	–	–	–	–	–	–	almost fully converted to the trans isomers
> 10000	O=C(NCc1ccc(F)cc1)[C@@H]1Cc2c([nH]c3ccccc23)CN1 [compound 9, (S)-N-(4-Fluorobenzyl)-2,3,4,9-tetrahydro-1H-pyrido[3,4-b]indole-3-carboxamide]	900 ± 400 nM	no activity as agonists or antagonists	no activity as agonists or antagonists	–	900 ± 400	–	600 ± 1300	–	–
–	O=C1N[C@H](Cc2ccccc2)C(=O)N2Cc3[nH]c4ccccc4c3C[C@@H]12 [compound 23, (3R,12aS)-3-Benzyl-2,3,12,12a-tetrahydropyrazino[1′,2′:1,6]pyrido[3,4-b]indole-1,4(6H,7H)-dione]	400 ± 100 nM	no activity as agonists or antagonists	no activity as agonists or antagonists	–	400 ± 100	no activity as agonists or antagonists	300	–	–

Reference: PMC8009520, “Exploration of TRPM8 Binding Sites by β-Carboline-Based Antagonists and Their In Vitro Characterization and In Vivo Analgesic Activities” (Journal of Medicinal Chemistry, 2020)
